Literature values, collected in patent US7973075B2, “Kainate receptor-selective epimeric analogs of dysiherbaine” (priority 2007, dated 2011).

Key:
mice = details: i.c.v. injection, mice; Shoji et al., 2006; cited from earlier work
KA2 [1] = target: T1, KA2 (Rattus norvegicus, UniProt Q63273); details: Sanders et al., 2005; cited from earlier work
T1 construct: expressed in transfected cells; host or cells: HEK-293-T/17
T1 sequence (Q63273 15-979): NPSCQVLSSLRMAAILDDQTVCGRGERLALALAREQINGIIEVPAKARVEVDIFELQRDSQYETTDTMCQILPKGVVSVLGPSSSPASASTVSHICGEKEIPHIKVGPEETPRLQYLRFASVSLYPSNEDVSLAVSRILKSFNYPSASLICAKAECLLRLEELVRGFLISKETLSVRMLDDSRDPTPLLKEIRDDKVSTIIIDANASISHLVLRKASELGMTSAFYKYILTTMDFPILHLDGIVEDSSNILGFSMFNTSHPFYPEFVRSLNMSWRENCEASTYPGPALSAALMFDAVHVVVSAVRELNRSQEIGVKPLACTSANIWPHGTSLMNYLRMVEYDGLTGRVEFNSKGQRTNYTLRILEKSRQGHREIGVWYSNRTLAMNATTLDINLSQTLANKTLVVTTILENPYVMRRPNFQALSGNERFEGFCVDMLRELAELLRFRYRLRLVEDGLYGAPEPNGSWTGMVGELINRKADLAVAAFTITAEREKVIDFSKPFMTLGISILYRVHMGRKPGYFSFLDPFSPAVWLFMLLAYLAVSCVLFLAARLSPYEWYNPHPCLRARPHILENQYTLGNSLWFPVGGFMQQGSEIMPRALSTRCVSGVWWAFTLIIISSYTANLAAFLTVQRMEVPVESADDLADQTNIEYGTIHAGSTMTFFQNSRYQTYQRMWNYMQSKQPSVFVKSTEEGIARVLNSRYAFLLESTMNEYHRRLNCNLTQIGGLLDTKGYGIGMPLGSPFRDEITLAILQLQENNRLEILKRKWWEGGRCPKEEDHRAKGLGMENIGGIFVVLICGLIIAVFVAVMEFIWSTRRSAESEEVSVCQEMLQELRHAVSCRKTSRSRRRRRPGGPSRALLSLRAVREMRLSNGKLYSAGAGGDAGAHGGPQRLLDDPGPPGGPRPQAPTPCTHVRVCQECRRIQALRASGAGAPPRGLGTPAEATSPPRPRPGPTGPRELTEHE

GluR5 = target: T2, GluR5 (Rattus norvegicus, UniProt P22756); details: Tables 1-2; comparison values of neoDH and MSVIII-19 (Sanders et al., 2005); read-out: GluR5 binding affinity (displacement of [3H]kainate); cited from earlier work
T2 construct: expressed in transfected cells; HEK 293 (patch clamp)

GluR5-2a = target: T3, GluR5-2a (Rattus norvegicus, UniProt P22756, DEL402-416); details: Sanders et al., 2005; cited from earlier work
T3 construct: expressed in transfected cells; host or cells: HEK-293-T/17

KA2 [2] = target: T1, KA2; details: Tables 1-2; comparison values of neoDH and MSVIII-19 (Sanders et al., 2005); cited from earlier work
GluR6 = target: T4, GluR6 (Rattus norvegicus, UniProt P42260); details: Tables 1-2; comparison value of neoDH (Sanders et al., 2005); read-out: GluR6 binding affinity (displacement of [3H]kainate); cited from earlier work
T4 construct: expressed in transfected cells; HEK 293 (patch clamp)
T4 sequence (P42260 32-908): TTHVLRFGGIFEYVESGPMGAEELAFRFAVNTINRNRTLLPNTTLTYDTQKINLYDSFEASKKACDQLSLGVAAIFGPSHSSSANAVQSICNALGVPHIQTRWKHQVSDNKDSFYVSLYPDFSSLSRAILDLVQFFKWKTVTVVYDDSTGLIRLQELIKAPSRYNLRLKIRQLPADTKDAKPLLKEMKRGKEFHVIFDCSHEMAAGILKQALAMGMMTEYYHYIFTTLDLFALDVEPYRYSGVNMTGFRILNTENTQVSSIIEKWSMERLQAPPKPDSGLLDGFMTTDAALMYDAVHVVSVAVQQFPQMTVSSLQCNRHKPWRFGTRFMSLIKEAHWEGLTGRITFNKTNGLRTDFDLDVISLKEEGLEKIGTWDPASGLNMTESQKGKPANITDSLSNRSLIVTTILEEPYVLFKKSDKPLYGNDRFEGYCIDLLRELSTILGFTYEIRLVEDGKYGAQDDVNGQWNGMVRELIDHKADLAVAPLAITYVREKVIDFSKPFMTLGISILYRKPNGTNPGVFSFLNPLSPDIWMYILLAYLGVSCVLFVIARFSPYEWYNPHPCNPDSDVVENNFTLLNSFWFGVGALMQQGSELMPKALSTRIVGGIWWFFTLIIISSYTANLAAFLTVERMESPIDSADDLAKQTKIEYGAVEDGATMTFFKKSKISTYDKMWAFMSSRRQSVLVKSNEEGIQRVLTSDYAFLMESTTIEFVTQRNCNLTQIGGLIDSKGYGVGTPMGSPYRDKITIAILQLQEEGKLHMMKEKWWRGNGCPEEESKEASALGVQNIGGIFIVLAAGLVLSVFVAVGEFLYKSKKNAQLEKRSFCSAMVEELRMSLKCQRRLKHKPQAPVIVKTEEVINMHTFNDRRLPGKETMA

T2 sequence (P22756 with tags, fused parts or gaps isoform P22756-2): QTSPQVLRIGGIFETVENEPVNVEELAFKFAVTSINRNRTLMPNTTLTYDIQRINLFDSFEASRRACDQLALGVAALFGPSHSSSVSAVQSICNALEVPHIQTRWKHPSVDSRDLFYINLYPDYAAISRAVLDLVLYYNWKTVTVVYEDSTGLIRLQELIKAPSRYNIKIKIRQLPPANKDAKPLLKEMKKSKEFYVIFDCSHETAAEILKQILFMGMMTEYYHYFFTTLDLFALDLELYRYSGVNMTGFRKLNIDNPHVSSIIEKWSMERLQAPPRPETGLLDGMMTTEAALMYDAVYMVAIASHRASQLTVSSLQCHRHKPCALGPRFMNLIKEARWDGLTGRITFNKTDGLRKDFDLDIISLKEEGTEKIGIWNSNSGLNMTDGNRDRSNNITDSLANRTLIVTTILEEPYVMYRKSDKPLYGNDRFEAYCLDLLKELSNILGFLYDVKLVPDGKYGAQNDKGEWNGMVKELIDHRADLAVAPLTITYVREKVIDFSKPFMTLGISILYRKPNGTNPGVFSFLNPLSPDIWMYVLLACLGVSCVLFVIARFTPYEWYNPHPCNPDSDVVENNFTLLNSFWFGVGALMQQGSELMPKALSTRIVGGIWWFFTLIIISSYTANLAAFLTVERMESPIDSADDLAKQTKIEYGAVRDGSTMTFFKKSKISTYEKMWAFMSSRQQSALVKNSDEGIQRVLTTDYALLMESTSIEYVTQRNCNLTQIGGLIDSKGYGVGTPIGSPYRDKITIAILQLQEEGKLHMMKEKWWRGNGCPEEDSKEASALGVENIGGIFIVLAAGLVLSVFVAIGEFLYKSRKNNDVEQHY
T3 sequence (P22756 with tags, fused parts or gaps isoform P22756-2 limits assumed, stated change not applied): as the sequence (P22756 with tags, fused parts or gaps isoform P22756-2) above

CN[C@H]1[C@H]2O[C@@](C[C@H](N)C(=O)O)(C(=O)O)C[C@H]2OC[C@H]1O [DH, Dysiherbaine]
ED50 seizure activity (mice): 13 pmol/mouse

N[C@@H](C[C@]1(C(=O)O)C[C@H]2OC[C@@H](O)[C@@H](O)[C@H]2O1)C(=O)O [neodysiherbaine, Neodysiherbaine]
Ki KA2 (KA2 [1]): 600 nM | Ki (GluR5): 7.7 nM | Ki (GluR5-2a): 7.7 nM | KA2 binding affinity (displacement of [3H]kainate) (KA2 [2]): 0.6 µM | ED50 seizure activity (mice): 16 pmol/mouse | Ki (GluR6): 33 nM
